System: elderly Sprague-Dawley rats with paw incision surgery
Conditions: males and females; morphine 1 or 5 mg/kg s.c. 24 h after surgery

CN1CC[C@]23c4c5ccc(O)c4O[C@H]2[C@@H](O)C=C[C@H]3[C@H]1C5.O=S(=O)(O)O [morphine, morphine sulfate]
paw withdrawal thresholds of morphine-injected animals compared with saline-injected counterparts: higher than that of their saline-injected counterparts at up to 1.5 hours post-injection
